Earlier results, collected in patent publication US20230354819A1 (priority 2020, published 2023).
Bridge positions count the residues as written; N and C are the ends. Square brackets hold non-standard residues; d marks the D form. Peptide text beside a SMILES is read from it. * marks the point of attachment. ξ: configuration not given here. Pentadecanoyl(3ξ-OH,15-Gua) = N=C(N)NCCCCCCCCCCCCC(O)CC(=O)*; d(aThr) = C[C@@H](O)[C@@H](N)C(=O)O

System: cultured parsley cells
Conditions: WO 2006/016558

CC(C)[C@@H]1NC(=O)[C@@H](C(C)C)NC(=O)[C@@H](NC(=O)CC(O)CCCCCCCCCCCCN=C(N)N)[C@@H](C)OC(=O)[C@@H](C)NC(=O)[C@@H](CC(N)=O)NC(=O)[C@@H]([C@@H](C)O)NC1=O (some centres unmarked) [fusaricidin A] ({Pentadecanoyl(3ξ-OH,15-Gua)}-T[dV]V[d(aThr)][dN][dA]; ester 1-C)
induction of resistance reactions: induce resistance reactions

CC(C)[C@@H]1NC(=O)[C@@H](C(C)C)NC(=O)[C@@H](NC(=O)CC(O)CCCCCCCCCCCCN=C(N)N)C(C)OC(=O)[C@@H](C)NC(=O)[C@@H](CCC(N)=O)NC(=O)[C@@H]([C@H](C)O)NC1=O (stereo in doubt) [fusaricidin B]
induction of resistance reactions: induce resistance reactions
